ChEMBL document CHEMBL4393685, “Synthesis and evaluation of pyrimidoindole analogs in umbilical cord blood ex vivo expansion” (Eur J Med Chem, 2019)

Columns and labels:
Assay type in all cases: functional
[1] = Stimulation of ex vivo expansion of human CD34+ cells assessed as CD34+CD38- level at 0.01 to 1 uM incubated for 7 days supplemented with 50% fresh medium containing cytokines every other day by flow cytometry (reference value: 19.10 +/- 0.35%)
[2] = Stimulation of ex vivo expansion of human CD34+ cells assessed as CD34+CD38- level incubated for 7 days supplemented with 50% fresh medium containing cytokines every other day by flow cytometry
[3] = Stimulation of ex vivo expansion of human CD34+ cells assessed as CD34+/CD38- level at 0.01 to 1 uM incubated for 7 days supplemented with 50% fresh medium containing cytokines every other day by flow cytometry relative to control
[4] = Ex vivo expansion of human CD34+ cells assessed as increase in CD34+ cell level after 5 to 7 days by […]
[5] = Stimulation of ex vivo expansion of human CD34+ cells assessed as CD34postive phenotypic levels after 7 days by carboxyfluorescein succinimidyl ester dye based assay
[6] = Homo sapiens, 168 h, read-out: EC50

Row | Structure (SMILES) | Activity [1] [%] | EC50 [2] | fold change (FC) [3] | EC50 [2, 6] [nM] | EC50 [4] [nM] | Activity [5] [%]
1 | COc1ccc(CCNc2nc(Cc3ccccc3)nc3[nH]c4cc(-c5nnn(C)n5)ccc4c23)cc1OC | 37.07 | Nd(Toxic) | 1.94 |  |  | 
2 | Cn1nnc(-c2ccc3[nH]c4nc(Cc5ccccc5)nc(NCCc5ccc(O)cc5)c4c3c2)n1 | 20.65 | Nd(Toxic) | 1.08 |  |  | 
3 | CNC(=O)c1ccc(Nc2nc(Cc3ccccc3)nc3[nH]c4ccc(-c5nnn(C)n5)cc4c23)cc1 | 21.83 | Nd(Toxic) | 1.14 |  |  | 
4 | Cn1nnc(-c2ccc3[nH]c4nc(Cc5ccccc5)nc(NCCNC(=O)c5ccc6ccccc6n5)c4c3c2)n1 | 20.89 | Nd(Toxic) | 1.09 |  |  | 
5 | Cn1nnc(-c2ccc3[nH]c4nc(Cc5ccccc5)nc(Nc5ccc(F)c(Cl)c5)c4c3c2)n1 | 20.65 | Nd(Toxic) | 1.08 |  |  | 
6 | Cn1nnc(-c2ccc3[nH]c4nc(Cc5ccccc5)nc(N[C@H]5CC[C@H](N)CC5)c4c3c2)n1 | 18.72 | Nd(Toxic) | 0.98 |  |  | 
7 | Cn1nnc(-c2ccc3[nH]c4nc(Cc5ccccc5)nc(NCCNC(=O)OC(C)(C)C)c4c3c2)n1 | 16.11 | Nd(Toxic) | 0.84 |  |  | 
8 | C#Cc1cccc(Nc2nc(Cc3ccccc3)nc3[nH]c4ccc(-c5nnn(C)n5)cc4c23)c1 | 25.99 |  | 1.36 | 56.2 |  | 
9 | Cn1nnc(-c2ccc3[nH]c4nc(Cc5ccccc5)nc(NCCc5c[nH]c6ccccc56)c4c3c2)n1 | 21.72 |  | 1.14 | 27.7 |  | 
10 | Cc1cc(Cl)ccc1Nc1nc(Cc2ccccc2)nc2[nH]c3cc(-c4nnn(C)n4)ccc3c12 | 15.37 | Nd(Toxic) | 0.8 |  |  | 
11 | Cn1nnc(-c2ccc3[nH]c4nc(Cc5ccccc5)nc(N5CCOCC5)c4c3c2)n1 | 17.32 |  | 0.91 | 177 |  | 
12 | Cn1nnc(-c2ccc3c(c2)[nH]c2nc(Cc4ccccc4)nc(NC4CCOCC4)c23)n1 | 30.87 |  | 1.62 | 972 |  | 
13 | Cn1nnc(-c2ccc3[nH]c4nc(Cc5ccccc5)nc(N5CCC(CO)CC5)c4c3c2)n1 | 20.29 |  | 1.06 | 359 |  | 
14 | COc1ccc(CCNc2nc(Cc3ccccc3)nc3[nH]c4cc(-c5nnn(C)n5)ccc4c23)cc1 | 14.15 | Nd(Toxic) | 0.74 |  |  | 
15 | Cn1nnc(-c2ccc3[nH]c4nc(Cc5ccccc5)nc(N5CCNCC5)c4c3c2)n1 | 24.69 |  | 1.29 | 157 |  | 
16 | C#Cc1cccc(Nc2nc(Cc3ccccc3)nc3[nH]c4cc(-c5nnn(C)n5)ccc4c23)c1 | 16.98 | Nd(Toxic) | 0.89 |  |  | 
17 | CN(C)c1nc(Cc2ccccc2)nc2[nH]c3cc(-c4nnn(C)n4)ccc3c12 | 15.91 | Nd(Toxic) | 0.83 |  |  | 
18 | Cn1nnc(-c2ccc3c(c2)[nH]c2nc(Cc4ccccc4)nc(NCCc4c[nH]c5ccccc45)c23)n1 | 19.73 | Nd(Toxic) | 1.03 |  |  | 
19 | Cc1ccc(Sc2nc(Cc3ccccc3)nc3[nH]c4ccc(-c5nnn(C)n5)cc4c23)cc1 | 25.53 | Nd(Toxic) | 1.34 |  |  | 

Row | Structure (SMILES) | Activity [1] [%] | EC50 [2] | fold change (FC) [3] | EC50 [2, 6] [nM] | EC50 [4] [nM] | Activity [5] [%]
20 | Cn1nnc(-c2ccc3c(c2)[nH]c2nc(Cc4ccccc4)nc(N[C@H]4CC[C@H](O)CC4)c23)n1 | 50.15 |  | 2.63 | 473 |  | 
21 | Cc1cc(Cl)ccc1Nc1nc(Cc2ccccc2)nc2[nH]c3ccc(-c4nnn(C)n4)cc3c12 | 30.36 |  | 1.59 | 19.2 |  | 
22 | Cn1nnc(-c2ccc3c(c2)[nH]c2nc(Cc4ccccc4)nc(Nc4ccc(F)c(Cl)c4)c23)n1 | 15.79 | Nd(Toxic) | 0.83 |  |  | 
23 | Cn1nnc(-c2ccc3[nH]c4nc(Cc5ccccc5)nc(Nc5ccc(N)cc5)c4c3c2)n1 | 22.01 | Nd(Toxic) | 1.15 |  |  | 
24 | CC(C)n1cnc2c(NCCc3ccc(O)cc3)nc(-c3csc4ccccc34)nc21 |  |  |  |  | 120 | 61
25 | Cn1nnc(-c2ccc3[nH]c4nc(Cc5ccccc5)nc(NCCO)c4c3c2)n1 | 18.99 | Nd(Toxic) | 0.99 |  |  | 
26 | Cn1nnc(-c2ccc3[nH]c4nc(Cc5ccccc5)nc(NCc5ccccc5)c4c3c2)n1 | 23.92 | Nd(Toxic) | 1.25 |  |  | 
27 | COc1ccc(CCNc2nc(Cc3ccccc3)nc3[nH]c4ccc(-c5nnn(C)n5)cc4c23)cc1 | 21.96 | Nd(Toxic) | 1.15 |  |  | 
28 | Cn1nnc(-c2ccc3[nH]c4nc(Cc5ccccc5)nc(Nc5cccc(Br)c5)c4c3c2)n1 | 22.63 | Nd(Toxic) | 1.19 |  |  | 
29 | Cn1nnc(-c2ccc3[nH]c4nc(Cc5ccccc5)nc(N5CCCC(CO)C5)c4c3c2)n1 (stereo not given) | 22.2 |  | 1.16 | 59.2 |  | 
30 | Cn1nnc(-c2ccc3[nH]c4nc(Cc5ccccc5)nc(Nc5ccccc5)c4c3c2)n1 | 18.02 | Nd(Toxic) | 0.94 |  |  | 
31 | COc1cc2c(cc1OC)CN(CCNc1nc(Cc3ccccc3)nc3[nH]c4ccc(-c5nnn(C)n5)cc4c13)CC2 | 21.93 |  | 1.27 | 30 |  | 
32 | COc1ccc(Nc2nc(Cc3ccccc3)nc3[nH]c4ccc(-c5nnn(C)n5)cc4c23)cc1 | 19.34 | Nd(Toxic) | 1.01 |  |  | 
33 | Cn1nnc(-c2ccc3[nH]c4nc(Cc5ccccc5)nc(N[C@H]5CC[C@H](O)CC5)c4c3c2)n1 | 17.9 | Nd(Toxic) | 0.94 |  |  | 
34 | Cn1nnc(-c2ccc3[nH]c4nc(Cc5ccccc5)nc(NCCN(Cc5ccccn5)Cc5ccccn5)c4c3c2)n1 | 24.23 |  | 1.27 | 26.2 |  | 
35 | CC(O)CNc1nc(Cc2ccccc2)nc2[nH]c3ccc(-c4nnn(C)n4)cc3c12 (stereo not given) | 31.2 |  | 1.63 | 167 |  | 
36 | COc1ccc(CCNc2nc(Cc3ccccc3)nc3[nH]c4ccc(-c5nnn(C)n5)cc4c23)cc1OC | 23.63 |  | 1.24 | 65.2 |  | 
37 | Cn1nnc(-c2ccc3c(c2)[nH]c2nc(Cc4ccccc4)nc(NCCc4ccc(O)cc4)c23)n1 | 18.2 | Nd(Toxic) | 0.95 |  |  | 
